Experimental data as given in BigSolDB 2.1.

O=C(O)c1cccnc1
Details	solubility (mole fraction)
in DMSO, 293.56 K	0.0597
in DMSO, 303.38 K	0.074
in DMSO, 313.07 K	0.0911
in DMSO, 322.84 K	0.109
in DMSO, 332.36 K	0.131
in acetone, 285.46 K	0.000733
in acetone, 292.26 K	0.00114
in acetone, 296.8 K	0.00137
in acetone, 302.14 K	0.00161
in acetone, 307.1 K	0.00231
in acetone, 317.11 K	0.00318
in acetonitrile, 283.3 K	7.12e-05
in acetonitrile, 288.51 K	0.00012
in acetonitrile, 293.01 K	0.00017
in acetonitrile, 297.58 K	0.000185
in acetonitrile, 302.63 K	0.000268
in acetonitrile, 306.91 K	0.000354
in acetonitrile, 312.49 K	0.000475
in acetonitrile, 316.21 K	0.000547
in acetonitrile, 322.45 K	0.000715
in acetonitrile, 332.32 K	0.00107
in diethyl ether, 283.45 K	0.000322
in diethyl ether, 285.74 K	0.000379
in diethyl ether, 290.57 K	0.000539
in diethyl ether, 294.02 K	0.000618
in diethyl ether, 298.66 K	0.000813
in ethanol, 283.38 K	0.00224
in ethanol, 293.46 K	0.00309
in ethanol, 303.15 K	0.00423
in ethanol, 312.83 K	0.00605
in ethanol, 322.64 K	0.00843
in ethanol, 332.43 K	0.0115
in water, 283.59 K	0.00172
in water, 293.41 K	0.00218
in water, 303.03 K	0.00281
in water, 312.49 K	0.00475
in water, 312.97 K	0.00365
in water, 316.21 K	0.00547
in water, 322.45 K	0.00715
in water, 322.83 K	0.00465
in water, 332.01 K	0.00586
in water, 332.32 K	0.0107
